Measurements published in patent US20200164100A1, “SURGICAL METHODS EMPLOYING PURIFIED AMPHIPHILIC PEPTIDE COMPOSITIONS” (priority 2013, published 2020).

Test system: signal transduction system of living organisms
Experiment: Cell culture experiments on bioactivity of the main constituent peptide
Format: cell-based
Settings: data not shown

For CH3CO-(Arg-Ala-Asp-Ala)4-NH2, the “bioactivity by acting on the signal transduction system of living organisms” value was “does not exhibit bioactivity”.
